Here are results for twelve compounds from patent EP1923473B1, “Bis-diglycolamides (BISDGA) as new extractants for lanthanides [Ln(III)] and actinides [An(III)] from aqueous high-level wastes” (Universidad Autónoma de Madrid, priority 2006, dated 2008).

Common to all, as to format: physicochemical
Data set [1] in a line: Extraction capability from aqueous 3 mol/L nitric acid. The note with it: aqueous [HNO3] 3 mol/L spiked with 152Eu(III) and 241Am(III). Here is the method:
The organic solutions of the extractant compounds to be tested were prepared dissolving an amount of the extractant compound in the solvent considered in each case to reach the ligand concentration of 0.1 mol/L. The solvents considered were 1-octanol, n-heptane, n-dodecane, the industrial solvent "TPH" (hydrogenated tetrapropylene) used in the "La Hague" reprocessing plant of the COGEMA company (Compagnie générale des matières nucléaires) and different mixtures "TPH/1-octanol or n-dodecane/1-octanol".
Once said solution was obtained, its equilibration was carried out. To that end, 800 µL of the organic solution of the compound to be studied were contacted with 800 µL of nitric acid of 3 mol/L concentration and it was stirred vigorously in an oscillating shaker for 5 minutes. The phases were separated by centrifugation at 5000 rpm. 800 µL of the said organic phase were again contacted with 800 µL of nitric acid of 3 mol/L concentration for another 5 minutes of vigorous shaking. The phases were separated by centrifugation, the organic phase being considered to be equilibrated.
(§1) 600 µL of the organic phase of the compound to be studied, previously equilibrated, were contacted with 600 µL of aqueous phase consisting of a 3 mol/L nitric acid solution spiked with 600 Bq of ^152Eu and 600 Bq of ^241Am. It was stirred vigorously by means of an oscillating shaker for 30 minutes and the phases were separated by centrifugation at 5000 rpm. 400 µL were taken from each of the phases for determining the concentration of the radionuclides ^152Eu and ^241Am. This determination was carried out by means of the high energy gamma spectrometry technique with a high-purity Ge detector (Canberra Inc.), using the 122 keV line for the determination of ^152Eu concentration and the 59.5 keV line for the determination of ^241Am concentration. The distribution coefficient was calculated by relating the concentration of each of the radionuclides in the organic phase and in the aqueous phase, according to the expression: DM = ([M]org)/([M]aq) [formula]
(§2) The distribution coefficients and the selectivity factor of each of them were determined as indicated in sections A) to C).

Data set [2] in a line: Eu/Am selectivity factor in extraction from 3 mol/L nitric acid. The note with it: aqueous [HNO3] 3 mol/L. Here is the method: as §1
The Eu/Am selectivity factor was calculated by relating the corresponding distribution coefficients of Eu with those of Am in the same experimental conditions: SFEu/Am = DEu /DAm [formula]
as §2

A short description of data set [3]: Radiolytic stability, extraction capability after irradiation. The note with it: after 1000 kGy; irradiated dissolved in n-dodecane/1-octanol (95:5)%vol, equilibrated with 3 mol/L nitric acid. Here is the method:
The tests of stability against irradiation were carried out in the NAYADE facility at CIEMAT site, with external ^60Co sources with an approximate activity of 5000 Ci, with a homogeneous irradiation flux. The dose rate applied in all the experiments was 4 kGy/h and integrated doses of 250 kGy, 500 kGy, 750 kGy and 1000 kGy were considered. The irradiation device consists of a metal cylinder which is introduced in a rack wherein the ^60CO sources are placed radially, such that the irradiation is homogeneous. The irradiation process is carried out submersing the device in a pool of water with a depth of 4 meters.
Irradiation tests of the solid compound (in the absence of solvent) and of the compound dissolved in the "n-dodecane/1-octanol (95:5)%vol" mixture, equilibrated with 3 mol/L nitric acid, were carried out. The organic solutions were prepared and equilibrated as detailed in the previous sections A) and B).
Once each programmed integrated dose was reached, the extraction capability of the organic samples was evaluated as detailed in section C).
The irradiation of compound 4 in solid form (in the absence of solvent) and dissolved at a 0.1 mol/L concentration in the "n-dodecane/1-octanol 1 (95:5)%vol" mixture, equilibrated with 3 mol/L nitric acid, was carried out. The applied dose rate was 4 kGy/h and the considered integrated doses were 250 kGy, 500 kGy, 750 kGy and 1000 kGy. After each integrated dose, the extraction capability of Am(III) and Eu(III) was evaluated as described in section C.
The considered integrated doses in this experiment were 500 kGy and 1000 kGy at a dose rate of 4 kGy/h.

Data set [4] is described as follows: Third phase formation in extraction from simulated HLLW. The note with it: HLLW without oxalic acid and without HEDTA; TODGA 0.2 mol/L. How it is done: […] Extraction experiments were carried out with said simulated HLLW in a pure form and also adding oxalic acid and HEDTA to it. These complexing agents have shown to be effective in the DIAMEX process for the complexing of Mo, Zr (H2C2O4) and Pd (HEDTA).
The actinides Am (III), Cm (III) and Cf (III) as well as trivalent lanthanides were extracted with high distribution coefficients from HLLW with a 3.2 mol/L nitric acid concentration. […] As expected, Zr and Pd are not co-extracted when complexing agents are added to HLLW.

Setting [5] is: 0.1 mol/L in TPH/1-octanol (50:50)%vol.

In data set [1] (setting [5]), “2-Dibutylcarbamoylmethoxy-N-[3-[(2-dibutylcarbamoyl-methoxy-acetylamino)methyl]benzyl]acetamide [Compound 3]” displayed a DAm of 99 and a DEu of 183. This compound also returned an SFEu/Am in data set [2] (setting [5]) of 1.9.
Consider “2-Dibutylcarbamoylmethoxy-N-[6-(2-dibutylcarbamoyl-methoxyacetylamino)hexyl]acetamide [Compound 14]”, for which, in data set [1] (setting [5]), the DAm was determined as 119 and the DEu is 215. The same compound came in with an SFEu/Am in data set [2] (setting [5]) of 1.8.
In data set [1] (0.1 mol/L in 1-octanol), “2-Dioctylcarbamoylmethoxy-N-[6-(2-dioctylcarbamoyl-methoxyacetylamino)hexyl]acetamide [Compound 15]” gave a DAm of 25 and a DEu of 98. Besides, in data set [2] (0.1 mol/L in 1-octanol), the SFEu/Am amounted to 3.9.
On to `CCCCCCCCN(C)C(=O)COCC(=O)NCc1cccc(CNC(=O)COCC(=O)N(C)CCCCCCCC)c1` [Compound 5, 2-[(Methyloctylcarbamoyl)methoxy]-N-[3-[(2-[(methyl-octyl-carbamoyl)methoxy]acetylamino]methyl]benzyl]-acetamide], for which, in data set [1] (setting [5]), the DAm is recorded as 83 and the DEu is 309. In addition, the SFEu/Am in data set [2] (setting [5]) turned out to be 3.7.
In data set [1] (setting [5]), `CC(C)CCN(CCC(C)C)C(=O)COCC(=O)NCc1cccc(CNC(=O)COCC(=O)N(CCC(C)C)CCC(C)C)c1` [Compound 6, 2-[[Bis(3-methylbutyl)carbamoyl]methoxy]-N-[3-[(2-[[bis-(3-methylbutyl)carbamoyl]methoxy]acetylamino)methyl]-benzyl]-acetamide] registered a DAm of 82 and a DEu of 251. Besides, the SFEu/Am in data set [2] (setting [5]) amounted to 3.1.
In the case of `CCCCCCCCN(CCCCCCCC)C(=O)COCC(=O)NCc1ccc(CNC(=O)COCC(=O)N(CCCCCCCC)CCCCCCCC)cc1` [Compound 8], in data set [1] (setting [5]), the DAm is 67 and the DEu came to 276. The compound further had an SFEu/Am in data set [2] (setting [5]) of 4.1.
Consider `CCCCCC(C)Oc1cc(CNC(=O)COCC(=O)N(CCCC)CCCC)cc(CNC(=O)COCC(=O)N(CCCC)CCCC)c1` (stereo not drawn) [Compound 10, 2-Di-butylcarbamoylmethoxy-N-[3-[(2-dibutyl-carbamoyl-methoxyacetylamino)methyl]-5-(1-methylhexyloxy)benzyl]-acetamide], for which, in data set [1] (setting [5]), the DAm is listed as 41 and the DEu is 276. The compound further came in with an SFEu/Am in data set [2] (setting [5]) of 6.7.
In data set [1] (setting [5]), `CCCCCCCCCCCCOc1cc(CNC(=O)COCC(=O)N(CCCC)CCCC)cc(CNC(=O)COCC(=O)N(CCCC)CCCC)c1` [Compound 11, 2-Di-butylcarbamoylmethoxy-N-[3-[(2-dibutyl-carbamoyl-methoxyacetylamino)methyl]-5-dodecyloxybenzyl]acetamide] had a DAm of 88 and a DEu of 335. In data set [2] (setting [5]), this compound yielded an SFEu/Am of 3.8.
As to `CCCCN(CCCC)C(=O)COCC(=O)NCCCNC(=O)c1cc(C(C)(C)C)cc2c1Oc1c(C(=O)NCCCNC(=O)COCC(=O)N(CCCC)CCCC)cc(C(C)(C)C)cc1C2(C)C` [Compound 19, 2,7-di-tert-butyl-9,9-dimethyl-9H-xanthen-4,5-dicarboxylic acid bis-[[3-(2-dibutylcarbamoylmethoxy-acetylamino)propyl]amide]], in data set [1] (setting [5]), the DAm is given as 65 and the DEu is recorded as 318. The SFEu/Am in data set [2] (setting [5]) was determined as 4.9.
For the compound `CCCCCCCCN(CCCCCCCC)C(=O)COCC(=O)N(C)C` [DMDODGA, N,N-dimethyl-N',N'-dioctyl-oxapentane-diamide, reference compound], in data set [1] (setting [5]), the DAm is on record as 477 and the DEu came to 789. For the same compound, the SFEu/Am in data set [2] (setting [5]) worked out at 1.7.
On to `CCCCN(CCCC)C(=O)COCC(=O)N(CCCC)CCCC` [TBDGA, N,N,N',N'-tetrabutyl-3-oxapentane-diamide, reference compound], for which, in data set [1] (setting [5]), the DAm is 476 and the DEu came out at 680. This compound had an SFEu/Am in data set [2] (setting [5]) of 1.4.
As to `CCCCCCCCN(CCCCCCCC)C(=O)COCC(=O)N(CCCCCCCC)CCCCCCCC` [TODGA, N,N,N',N'-tetraoctyl diglycolamide, reference compound], in data set [3], the DAm was found to be 121 and the DEu is reported as 458. Further, the third phase result in data set [4] is reported as “a third phase was observed”.
